Experimental data: patent publication US9102648B1, “Bioavailable diacylhydrazine ligands for modulating the expression of exogenous genes via an ecdysone receptor complex” (Intrexon Corporation, priority 2003, dated 2015)
Values after ≈ are worked out from the molar mass of the structure shown. Like-named read-outs stand apart in the source and are kept apart here.

Assays:
[1] = Determination of LC Log P (experimental); format: physicochemical; conditions: for chromatographic logP: from LC retention time against log P standards, read-out: LC LogP (exp)
Method: Liquid chromatography retention times (RT) are measured for each substance using the conditions described below. A linear equation is derived relating RT to log P is developed from the data for the log P standards. The log P for the test compound is calculated from the log P/retention time equation.

[2] = Bi-directional permeability, CACO-2; format: in vitro ADME
Method: (§1) Caco-2 monolayers were grown to confluence on collagen-coated, microporous, polycarbonate membranes in 12-well Costar Transwell plates. Details of the plates and their certification are shown below. The permeability assay buffer was Hank's Balanced Salt Solution containing 10 mM HEPES and 15 mM glucose at a pH of 7.0±0.2. The dosing solution concentration was 10 μM in assay buffer. At each time point, 1 and 2 hours, a 200-μL aliquot was taken from the receiver chamber and replaced with fresh assay buffer. Cells were dosed on the apical side (A-to-B) or basolateral side (B-to-A) and incubated at 37° C. with 5% CO2 and 90% relative humidity. Each determination was performed in duplicate. The important experimental parameters are outlined below. Permeability through a cell-free (blank) membrane was studied to determine non-specific binding and free diffusion of the compound through the device. Lucifer yellow flux was also measured for each monolayer after being subjected to the test compounds to ensure no damage was inflicted to the cell monolayers during the flux period.
(§2) All samples were assayed by LC/MS using electrospray ionization. Typical LC/MS conditions are as follows:
(§3) dCr/dt is the cumulative concentration in the receiver compartment versus time in M s^−1.
(§4) Vr is the volume of the receiver compartment in cm^3.
(§5) Vd is the volume of the donor compartment in cm^3.
(§6) A is the area of the cell monolayer (1.13 cm^2 for 12-well Transwell).
(§7) C0 is the concentration of the dosing solution in M.
(§8) Cr^final is the cumulative receiver concentration in M at the end of the incubation period.
(§9) Cd^final is the concentration of the donor in M at the end of the incubation period.

[3] = tested on: Caco-2 monolayers; assay: Bi-directional permeability, CACO-2; format: in vitro ADME
Method: as §1, §2, §3, §4, §5, §6, §7, §8, §9

[4] = tested on: mutated ecdysone receptor-based gene switch; assay: In vivo SEAP induction, ligand by IP injection; set-up: species or system C57BL/6 mouse; conditions: for Secreted Alkaline Phosphatase (percentage of GS ™-E ligand induction) Day 2 / Secreted Alkaline Phosphatase (percentage of GS ™-E ligand induction) Day 3 / Secreted Alkaline Phosphatase (percentage of GS ™-E ligand induction) Day 11: mouse serum; for Secreted Alkaline Phosphatase (percentage of GS ™-E ligand induction) Day 2: IP 2.6 μmol ligand 3 days after electroporation, day 2 after ligand; for Secreted Alkaline Phosphatase (percentage of GS ™-E ligand induction) Day 3 / Secreted Alkaline Phosphatase (percentage of GS ™-E ligand induction) Day 11: IP 2.6 μmol ligand; for Secreted Alkaline Phosphatase (percentage of GS ™-E ligand induction) Day 3: day 3 after ligand; for Secreted Alkaline Phosphatase (percentage of GS ™-E ligand induction) Day 11: day 11 after ligand
Outline: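 Gene switch plasmids (receptor under CMV promoter) electroporated into quadriceps of C57BL/6 mice; 3 days later ligand given IP at 2.6 μmol or 26 nmol in 50 μL DMSO per mouse. Serum SEAP measured by chemiluminescence 2-11 days after dosing, averaged over four animals, expressed as % of GS™-E ligand induction.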

[5] = Aqueous equilibrium solubility in pH 7.4 buffer; conditions: pH 7.4 aqueous phosphate buffer, pH 7.4, aqueous buffer, thermodynamic from solid
[6] = Determination of water solubility (de-ionized water, LC/MS); conditions: kinetic from dmso stock
Method: Aqueous solutions are prepared as follows in triplicate: 50 μl of a 10,000 ppm solution (2,000 μg of solid dissolved in 200 μl of methanol) of the substrate in methanol or DMSO is added to 1 mL of de-ionized water in a 2 dram or smaller vial with magnetic stirring. Stirring is continued overnight at ambient temperature. The slurry is taken up into a syringe with a luer tip. The contents are passed through a new 13 mm 0.2 ρM Acrodisc filter (tuffryn or glass fiber) into an autosampler bottle. For preparation of calibration standard solutions: dilutions of the 10,000 ppm solution were prepared at 10, 5, 1, 0.5, and 0.2 ppm. […] For more soluble materials, dilution of the samples into this range is preferable to increasing the calibration range because the non-linearity of the response results in less useful calibration curves. However a shift in the range of calibration standards is required for very insoluble compounds.
Chromatography of the samples was then preformed. For most diacylhydrazines the following conditions were adequate for the measurement. Other columns and gradients may be substituted as appropriate.
Analysis of the test samples is conducted as follows: Each solubility replicate is analyzed in duplicate. […] Standard curves are obtained from duplicate injections of the standards. The concentration of the substrate is determined by calculation from the equation relating concentration and response.

[7] = Caco-2, pH 7, Percent Recovery Blank
[8] = human, Caco-2, pH 7, Papp, A-to-B Avg
[9] = human, Caco-2, pH 7, Papp, A-to-B Rep. 1
[10] = human, Caco-2, pH 7, Papp, A-to-B Rep. 2
[11] = human, Caco-2, pH 7, Papp, B-to-A Avg
[12] = human, Caco-2, pH 7, Papp, B-to-A Rep. 1
[13] = human, Caco-2, pH 7, Papp, B-to-A Rep. 2
[14] = human, Caco-2, pH 7, Percent Recovery A-to-B
[15] = human, Caco-2, pH 7, Percent Recovery B-to-A

| SMILES | chromatographic logP [1] | Papp at 2 h, 10 µM ([2]; Caco-2, pH 7, Papp Blank) [×10⁻⁶ cm/s] | recovery at 2 h, 10 μM [2, 7] [%] | efflux ratio at 2 h, 10 μM ([2]; human, Caco-2, pH 7) | Papp A→B at 2 h, 10 µM [2, 8] [×10⁻⁶ cm/s] | Papp A→B at 2 h, 10 µM [2, 9] [×10⁻⁶ cm/s] | Papp A→B at 2 h, 10 µM [2, 10] [×10⁻⁶ cm/s] | Papp B→A at 2 h, 10 µM [2, 11] [×10⁻⁶ cm/s] | Papp B→A at 2 h, 10 µM [2, 12] [×10⁻⁶ cm/s] | Papp B→A at 2 h, 10 µM [2, 13] [×10⁻⁶ cm/s] | recovery at 2 h, 10 μM [2, 14] [%] | recovery at 2 h, 10 μM [2, 15] [%] | Significant Efflux ([3]; Caco-2) | Secreted Alkaline Phosphatase (percentage of GS ™-E ligand induction) Day 2 [4] | Secreted Alkaline Phosphatase (percentage of GS ™-E ligand induction) Day 3 [4] | Secreted Alkaline Phosphatase (percentage of GS ™-E ligand induction) Day 11 [4] | solubility [5] [µg/mL] | solubility kinetic [6] [µM] | further results |
| --- | --- | --- | --- | --- | --- | --- | --- | --- | --- | --- | --- | --- | --- | --- | --- | --- | --- | --- | --- |
| CCc1ccc(C(=O)NN(C(=O)c2cc(C)cc(C)c2)C(C)(C)C)c(F)c1 [RG-101523, 3,5-Dimethyl-benzoic acid N-tert-butyl-N′-(4-ethyl-2-fluoro-benzoyl)-hydrazide] | 4.35 | 29.4 | 95 | 1 | 25.4 | 24.2 | 26.6 | 24.5 | 23.6 | 25.4 | 95 | 88 | No | 85 percentage of GS ™-E ligand induction | 79 percentage of GS ™-E ligand induction | 1,116 percentage of GS ™-E ligand induction | 1 (≈ 2.7 µM) | 13.4 (≈ 4.96 µg/mL) |  |
| COc1ccc(C(=O)N(NC(=O)c2ccc3c(c2C)OCCO3)C(C)(C)C)c(OC)n1 [RG-115517, 2,6-dimethoxy-nicotinic acid N-tert-butyl-N′-(5-methyl-2,3-dihydro-benzo[1,4]dioxine-6-carbonyl)-hydrazide] | 3.15 | 31.6 | 96 | 0.9 | 28.8 | 28.4 | 29.3 | 26.4 | 25.2 | 27.6 | 91 | 95 | No | 4 percentage of GS ™-E ligand induction | 3 percentage of GS ™-E ligand induction |  | 14 (≈ 32.6 µM) | 36.7 (≈ 15.8 µg/mL) |  |
| CCC(N(NC(=O)c1cccc(C)c1C)C(=O)c1cc(C)cc(C)c1)C(C)(C)C (centres unmarked) [RG-103309, 3,5-dimethyl-benzoic acid N′-(2,3-dimethyl-benzoyl)-N-(1-ethyl-2,2-dimethyl-propyl)-hydrazide] |  | 23.6 | 70 | 1.3 | 24.5 | 25.2 | 23.8 | 32.5 | 32.5 | 32.5 | 74 | 75 | No | 251 percentage of GS ™-E ligand induction | 298 percentage of GS ™-E ligand induction |  | ≤ 0.2 | 2.9 (≈ 1.14 µg/mL) | Secreted Alkaline Phosphatase Day 2 ([4]; IP 26 nmol ligand): 3,428 ng/ml mouse sera; Secreted Alkaline Phosphatase Day 3 ([4]; IP 26 nmol ligand): 2,800 ng/ml mouse sera; Secreted Alkaline Phosphatase Day 7 ([4]; IP 26 nmol ligand): 143 ng/ml mouse sera |
| CCc1c(OC)cccc1C(=O)NN(C(=O)c1cc(C)cc(C)c1)C(C)(C)C [RG-102240, N-(3-methoxy-2-ethylbenzoyl)-N′-(3,5-dimethylbenzoyl)-N′-tert-butylhydrazine] | 4.2 |  |  |  |  |  |  |  |  |  |  |  |  | 100 percentage of GS ™-E ligand induction | 100 percentage of GS ™-E ligand induction | 100 percentage of GS ™-E ligand induction | 0.7 (≈ 1.83 µM) | 9.8 (≈ 3.75 µg/mL) | logP ([1]; diacylhydrazine log P standards (log P known experimentally)): 4.2; Papp at 2 h, 10 µM ([2]; Caco-2, pH 7, cell-free (blank) membrane, 10 μM, read-out: Papp Blank): 28.4 ×10⁻⁶ cm/s; recovery at 2 h, 10 μM ([2]; Caco-2, pH 7, cell-free (blank) membrane, 10 μM, read-out: Percent Recovery Blank): 78%; Papp A→B at 2 h, 10 µM ([2]; human, Caco-2, pH 7, Caco-2, 10 μM, average of 2 replicates, read-out: Papp, A-to-B Avg): 31.8 ×10⁻⁶ cm/s; Papp B→A at 2 h, 10 µM ([2]; human, Caco-2, pH 7, Caco-2, 10 μM, average of 2 replicates, read-out: Papp, B-to-A Avg): 23.5 ×10⁻⁶ cm/s; Papp A→B at 2 h, 10 µM ([2]; human, Caco-2, pH 7, Caco-2, 10 μM, replicate 1, read-out: Papp, A-to-B Rep. 1): 32.3 ×10⁻⁶ cm/s; Papp B→A at 2 h, 10 µM ([2]; human, Caco-2, pH 7, Caco-2, 10 μM, replicate 1, read-out: Papp, B-to-A Rep. 1): 23.3 ×10⁻⁶ cm/s; Papp A→B at 2 h, 10 µM ([2]; human, Caco-2, pH 7, Caco-2, 10 μM, replicate 2, read-out: Papp, A-to-B Rep. 2): 31.4 ×10⁻⁶ cm/s; Papp B→A at 2 h, 10 µM ([2]; human, Caco-2, pH 7, Caco-2, 10 μM, replicate 2, read-out: Papp, B-to-A Rep. 2): 23.7 ×10⁻⁶ cm/s; recovery at 2 h, 10 μM ([2]; human, Caco-2, pH 7, Caco-2, apical-to-basolateral, 10 μM, read-out: Percent Recovery A-to-B): 94%; recovery at 2 h, 10 μM ([2]; human, Caco-2, pH 7, Caco-2, basolateral-to-apical, 10 μM, read-out: Percent Recovery B-to-A): 87%; efflux ratio at 2 h, 10 μM ([2]; human, pH 7, Caco-2 efflux ratio, read-out: Papp B-A / Papp A-B Ratio): 0.7; Absorption Potential ([3]; classification from Papp(A-to-B)): High (Papp(A-to-B) ≧ 1.0 × 10^−6 cm/s High); Significant Efflux ([3]; classification from Papp(B-to-A) and ratio): No; Secreted Alkaline Phosphatase Day 2 ([4]; IP 130 nmol ligand): 652 ng/ml mouse sera; Secreted Alkaline Phosphatase Day 3 ([4]; IP 130 nmol ligand): 1,780 ng/ml mouse sera; Secreted Alkaline Phosphatase Day 7 ([4]; IP 130 nmol ligand): 139 ng/ml mouse sera |
